Here are results for 20 compounds from US6518284B2, “4-substituted piperidines” (Faes, Fabrica Espanola de Productos Quimicos Y …, priority 1999, dated 2003).

Holding throughout (type): binding
For assay [1], the target named is T1, serotonin reuptake receptors (5HT) / Serotonin uptake sites (transporters) (Rattus norvegicus, UniProt P31652).
T1 construct: from tissue; host or cells: rat cerebral cortex
Nature of the assay: Affinity for serotonin reuptake sites, [3H]-paroxetine radioligand, rat cerebral cortex. The note with it: Rat brain; read-out: K1 values, Serotonin uptake sites (transporters). The source says:
(§1) The pharmacological activity of the compounds of general formula (I) was determnined-using well-established in vitro and in vivo pharmacological processes.

The target in assay [2] is noradrenaline (NA) reuptake receptors / Noradrenaline uptake sites (transporters) (Rattus norvegicus, UniProt Q63380). Nature of the assay: Affinity for noradrenaline reuptake sites, [3H]-nisoxetine radioligand, rat cerebral cortex. To be noted: Rat brain, read-out: K1 values, Noradrenaline uptake sites (transporters).
Chain of noradrenaline (NA) reuptake receptors / Noradrenaline uptake sites (transporters) (Q63380 1-617): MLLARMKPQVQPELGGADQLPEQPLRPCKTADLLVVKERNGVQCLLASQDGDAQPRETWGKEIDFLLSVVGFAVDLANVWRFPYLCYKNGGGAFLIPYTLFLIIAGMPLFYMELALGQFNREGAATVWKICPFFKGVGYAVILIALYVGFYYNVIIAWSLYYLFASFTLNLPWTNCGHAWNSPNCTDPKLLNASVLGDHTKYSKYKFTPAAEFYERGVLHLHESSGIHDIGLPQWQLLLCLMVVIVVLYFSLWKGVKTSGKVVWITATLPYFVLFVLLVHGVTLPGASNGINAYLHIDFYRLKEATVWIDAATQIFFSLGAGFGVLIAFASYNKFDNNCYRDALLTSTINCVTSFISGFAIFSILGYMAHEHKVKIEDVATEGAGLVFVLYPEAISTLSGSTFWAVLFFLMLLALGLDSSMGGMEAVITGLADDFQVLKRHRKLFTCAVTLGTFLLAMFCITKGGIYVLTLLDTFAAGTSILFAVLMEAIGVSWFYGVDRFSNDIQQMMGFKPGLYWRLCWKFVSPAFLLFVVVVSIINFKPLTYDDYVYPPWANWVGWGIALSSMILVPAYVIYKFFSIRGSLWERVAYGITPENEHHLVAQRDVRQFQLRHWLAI
Excerpt: as §1

Assay [3] concerns the target T2, Dopamine uptake sites (transporters) (Rattus norvegicus, UniProt P23977).
T2 construct: Uptake sites (transporters); Rat brain; from tissue; host or cells: rat brain
Nature of the assay: Affinity for dopamine uptake sites (transporters), rat brain. To be noted: read-out: K1 values, Dopamine uptake sites (transporters).

The structures appear in SMILES notation. Read-outs that look alike come from different tables or passages of the source.

T1 sequence (P31652 whole entry): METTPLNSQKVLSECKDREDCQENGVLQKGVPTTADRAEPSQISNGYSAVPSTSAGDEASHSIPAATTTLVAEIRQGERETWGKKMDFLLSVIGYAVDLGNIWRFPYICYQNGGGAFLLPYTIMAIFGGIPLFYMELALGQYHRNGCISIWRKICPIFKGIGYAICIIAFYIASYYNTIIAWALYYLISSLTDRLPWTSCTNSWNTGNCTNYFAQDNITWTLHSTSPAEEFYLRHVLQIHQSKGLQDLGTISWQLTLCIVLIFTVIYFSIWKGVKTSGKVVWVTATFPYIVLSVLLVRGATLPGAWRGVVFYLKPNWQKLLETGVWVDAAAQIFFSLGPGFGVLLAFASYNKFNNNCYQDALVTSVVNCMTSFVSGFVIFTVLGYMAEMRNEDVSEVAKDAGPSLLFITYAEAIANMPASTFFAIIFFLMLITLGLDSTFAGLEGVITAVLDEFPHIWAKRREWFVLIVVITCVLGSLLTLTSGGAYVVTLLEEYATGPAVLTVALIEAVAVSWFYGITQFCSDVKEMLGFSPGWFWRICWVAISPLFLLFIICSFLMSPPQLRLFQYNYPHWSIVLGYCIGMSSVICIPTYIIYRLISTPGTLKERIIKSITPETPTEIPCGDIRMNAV
T2 sequence (P23977 whole entry): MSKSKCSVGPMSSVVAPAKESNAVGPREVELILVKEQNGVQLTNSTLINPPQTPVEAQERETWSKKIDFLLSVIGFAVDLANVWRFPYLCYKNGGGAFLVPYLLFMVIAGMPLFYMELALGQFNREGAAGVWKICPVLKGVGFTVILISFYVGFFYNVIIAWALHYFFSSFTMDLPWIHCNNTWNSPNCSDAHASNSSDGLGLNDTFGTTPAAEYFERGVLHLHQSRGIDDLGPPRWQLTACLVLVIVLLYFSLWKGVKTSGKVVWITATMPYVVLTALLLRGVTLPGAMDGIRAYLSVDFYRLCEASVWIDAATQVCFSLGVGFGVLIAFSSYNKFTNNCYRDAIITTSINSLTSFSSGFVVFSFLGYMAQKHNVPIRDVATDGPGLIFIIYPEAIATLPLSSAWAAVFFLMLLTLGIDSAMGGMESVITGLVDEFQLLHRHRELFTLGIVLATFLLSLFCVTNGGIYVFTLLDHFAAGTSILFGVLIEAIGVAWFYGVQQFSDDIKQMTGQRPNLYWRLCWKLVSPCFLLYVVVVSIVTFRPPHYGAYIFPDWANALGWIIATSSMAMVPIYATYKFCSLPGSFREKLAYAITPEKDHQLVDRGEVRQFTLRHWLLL

In the case of `Fc1ccccc1O[C@H](c1ccccc1)C1CCNCC1` [Compound F-98607-PD], the values for the Ki in assay [1], in assay [2] and in assay [3] (bounds given in μM) were 4.2 nM, 0.0225 µM and more than 1 µM, respectively.

As for `Fc1cccc(O[C@@H](c2ccccc2)C2CCNCC2)c1` [Compound F-98212-TA], the Ki is 0.107 µM in assay [2] and more than 1 µM in assay [3] (bounds given in μM).

In the case of `N#Cc1cccc(OC(c2ccccc2)C2CCNCC2)c1` (stereo not drawn) [Compound F-98716-TA], the figures for the Ki in assay [1], in assay [2] and in assay [3] (bounds given in μM) were 1.43 nM, 0.18 µM and more than 1 µM, respectively.

As for `Clc1cccc(O[C@@H](c2ccccc2)C2CCNCC2)c1` [Compound F-98616-TA], the Ki in assay [2] was 0.0558 µM; in assay [3] (bounds given in μM) it was more than 1 µM.

In the case of `Fc1cccc([C@H](Oc2ccccc2F)C2CCNCC2)c1` [Compound F-98917-PD], the Ki was 4.3 nM in assay [1], 0.0191 µM in assay [2] and more than 1 µM in assay [3] (bounds given in μM).

Consider `Fc1cc(F)cc(O[C@@H](c2ccccc2)C2CCNCC2)c1` [Compound F-98822-TA], for which the Ki was 7.09 nM in assay [1], 0.386 µM in assay [2] and more than 1 µM in assay [3] (bounds given in μM).

On to `Fc1ccccc1O[C@@H](c1ccccc1)C1CCNCC1` [Compound F-98718-PD], for which the figures for the Ki in assay [1], in assay [2] and in assay [3] were 28.5 nM, 0.0414 µM and 0.52 µM, respectively.

On to `Fc1cccc([C@@H](Oc2ccccc2F)C2CCNCC2)c1` [Compound F-98925-PD], for which the values for the Ki in assay [1], in assay [2] and in assay [3] were 27.6 nM, 0.0481 µM and 0.377 µM, respectively.

As to `O=[N+]([O-])c1ccc(O[C@H](c2ccccc2)C2CCNCC2)cc1` [Compound F-98603-PD], the Ki is 0.63 nM in assay [1], more than 1 µM in assay [2] (bounds given in μM) and more than 10 µM in assay [3] (bounds given in μM).

Regarding `FC(F)(F)c1ccc(O[C@H](c2ccccc2)C2CCNCC2)cc1` [Compound F-98408-TA], the Ki in assay [1] was 34.8 nM; in assay [2] (bounds given in μM), more than 10 µM; in assay [3] (bounds given in μM), more than 1 µM.

Turning to `FC(F)(F)c1ccc(OC(c2ccccc2)C2CCNCC2)cc1` (stereo not drawn) [Compound F-98404-TA], the Ki is 14.9 nM in assay [1], more than 10 µM in assay [2] (bounds given in μM) and more than 1 µM in assay [3] (bounds given in μM).

As to `Fc1ccc(O[C@@H](c2ccccc2)C2CCNCC2)cc1` [Compound F-97814-TA], the Ki in assay [1] is 0.45 nM; in assay [3], 0.821 µM.

Regarding `Fc1cc(F)cc(O[C@H](c2ccccc2)C2CCNCC2)c1` [Compound F-98814-TA], the Ki is 1.4 nM in assay [1], 0.0248 µM in assay [2] and more than 1 µM in assay [3] (bounds given in μM).

Regarding `Fc1cccc(O[C@@H](c2cccc(F)c2)C2CCNCC2)c1` [Compound F-98829-PD], the results for the Ki in assay [1], in assay [2] and in assay [3] (bounds given in μM) were 2.83 nM, 0.0175 µM and more than 1 µM, respectively.

With `Fc1ccc(O[C@H](c2ccccc2)C2CCNCC2)cc1` [Compound F-97815-TA], the Ki in assay [1] was 45.9 nM; in assay [2] it was 1.45 µM; in assay [3] it was 0.253 µM.

For the compound `O=[N+]([O-])c1ccc(OC(c2ccccc2)C2CCNCC2)cc1` (stereo not drawn) [Compound F-98610-PD], the values for the Ki in assay [1], in assay [2] (bounds given in μM) and in assay [3] (bounds given in μM) were 15.1 nM, more than 1 µM and more than 1 µM, respectively.

As for `Clc1cccc(O[C@H](c2ccccc2)C2CCNCC2)c1` [Compound F-98620-TA], the Ki in assay [3] (bounds given in μM) is more than 1 µM.

Regarding `Fc1cccc(O[C@H](c2cccc(F)c2)C2CCNCC2)c1` [Compound F-98828-PD], the Ki in assay [1] worked out at 9.99 nM; in assay [2] it was 0.128 µM; in assay [3] it was 0.113 µM.

For `N#Cc1cccc(O[C@H](c2ccccc2)C2CCNCC2)c1` [Compound F-98715-TA], the Ki was 1.68 nM in assay [1], 0.0869 µM in assay [2] and 0.11 µM in assay [3].

With `Fc1cccc(O[C@H](c2ccccc2)C2CCNCC2)c1` [Compound F-98214-TA], the Ki in assay [2] came out at 0.0135 µM; in assay [3], 0.461 µM.
